Results from publication PMC3661498 (Ophthalmology and Eye Diseases, 2010).
Like-named read-outs stand apart in the source and are kept apart here.

Key:
HSV-1 [1] = assay: In vitro antiviral testing, CPE inhibition, HSV-1; assay type: cell-based; details: Human alphaherpesvirus 1, read-out: EC50 HSV-1 CPE inhibition
HSV-2 = assay: In vitro antiviral testing, CPE inhibition, HSV-2; assay type: cell-based; details: Human alphaherpesvirus 2, read-out: EC50 HSV-2 CPE inhibition
[2] = Transport of drug/prodrugs across freshly excised rabbit cornea; assay type: in vitro ADME; details: New Zealand albino, rabbit, pH 7.4
HSV-1 [3] = details: read-out: EC50 HSV-1; cited from earlier work
[4] = system: [^3H] alanine uptake by rPCEC; assay: Uptake of [3H] alanine by rPCEC in presence of prodrugs, kinetics and affinity; assay type: cell-based, rabbit
[5] = system: [^3H] arginine uptake by rPCEC; assay: Uptake of [3H] arginine by rPCEC in presence of prodrugs; assay type: cell-based, rabbit; details: 5 mM test substance
[6] = system: [^3H] phenylalanine uptake by rPCEC; assay: Uptake of [3H] phenylalanine by rPCEC in presence of prodrugs; assay type: cell-based, rabbit; details: 5 mM test substance
isolated rabbit cornea = assay: Transport of drug/prodrugs across freshly excised rabbit cornea; assay type: in vitro ADME; details: in presence of 5 mM glutamic acid

Structure (SMILES): Nc1nc2c(ncn2COCCO)c(=O)[nH]1 [ACV, acyclovir]
- EC50 (HSV-1 [1]): 7.1 µM
- EC50 (HSV-2): 6.6 µM
- Papp at 3 h, 1 mM [2]: 2.33 ± 0.73 ×10⁻⁶ cm/s

Structure (SMILES): CC(C)[C@H](N)C(=O)OCCOCn1cnc2c(=O)[nH]c(N)nc21 [VACV, valacyclovir]
- EC50 (HSV-1 [3]): 9.1 µM

Structure (SMILES): C[C@H](N)C(=O)O [alanine, L-alanine]
- Effect on [^3H] alanine uptake (in words) ([4]; 5 mM test substance): significantly inhibited
- Vmax of alanine uptake ([4]; no inhibitor, listed as [^3H] alanine): 0.84 μmoles·min^−1·mg protein^−1
- Km ([4]; read-out: Km of alanine uptake, no inhibitor): 710 µM

Structure (SMILES): N=C(N)NCCC[C@H](N)C(=O)O [arginine, L-arginine]
- Effect on [^3H] arginine uptake (in words) [5]: significantly inhibited

Structure (SMILES): N[C@@H](Cc1ccccc1)C(=O)O [phenylalanine]
- Effect on [^3H] phenylalanine uptake (in words) [6]: significantly inhibited

Structure (SMILES): O=C(O)CCC(=O)O [succinate]
- Effect on transcorneal flux (in words) (isolated rabbit cornea): did not cause any significant change
